Data on two compounds can be found in patent publication US12458616B2, “Levodopa dosing regimen” (Amneal Pharmaceuticals, LLC, priority 2020, dated 2025).

A short description of data set [1]: Example 12 pharmacokinetics in healthy subjects: fed, sprinkled on applesauce, fasted. The class given is in vivo, human. The following applies: Example 7 capsule 350 mg LD/87.5 mg CD; for Tmax: median (min-max); for AUC(0-t): hour 0 to 24 hours; for Cmax: po, single oral dose. How it is done: The dosage forms described in Example 7 were administered to 27 healthy male and female subjects between the ages of 18 and 55 with a body weight of at least 55 kg and body mass index of 18.5 to 30.0 kg/m^2 in a single site, open label, single dose, 3-treatment, 3-period, crossover study. The subjects were fasted overnight for at least 10 hours and received a single dose of 350 mg LD and 87.5 CD for each treatment separated by a 6 to 7 day washout period.
No additional food was allowed for at least 4 hours post dose.
Treatment B comprised the oral administration of one capsule prepared in accordance with Example 7 containing 350 mg LD and 87.5 mg CD wherein the contents of the capsule were sprinkled onto 1 tablespoon of applesauce. No additional food was allowed for at least 4 hours post dose.
Treatment C comprised the oral administration of one capsule prepared in accordance with Example 7 containing 350 mg LD and 87.5 mg CD with 240 mL of water. No food was allowed for at least 4 hours post dose.
For Treatments A and C the subjects were instructed to swallow the capsule intact and not to chew, divide or crush the tablet.
For Treatment B, the subjects were instructed to consume all the applesauce without crushing or chewing the beads.
Whole blood samples were taken prior to dosing and at 0.5, 1, 1.5, 2, 2.5, 3, 4, 5, 6, 7, 8, 10, 12, 16 and 24 hours post dose. The plasma samples were analyzed for concentrations of CD and LD by a validated liquid chromatography-tandem mass spectrometry (LC-MS/MS) method. Peak plasma (Cmax), area under the plasma concentration-time curve (AUCt and AUC∞), and time to maximum concentration (Tmax) for LD and CD were evaluated. The mean pharmacokinetic parameters are showing in the following table and in FIGS. 20 and 21.

The conditions of data set [2]: cited from earlier work.
Where [3] appears, read: both sexes, human, plasma, oral, Fasted, mean ± SD.
[4] abbreviates: both sexes, human, plasma, oral, Fasted, read-out: Tmax.
Where [5] appears, read: both sexes, human, plasma, oral, Fed, read-out: Tmax.
[6] abbreviates: both sexes, human, plasma, oral, Fed, mean ± SD.
Where [7] appears, read: both sexes, human, plasma, oral, Sprinkled on Applesauce, mean ± SD.
Where [8] appears, read: both sexes, human, plasma, Fasted, mean ± SD.
Setting [9] is: both sexes, human, plasma, Fed (high-fat breakfast), mean ± SD.
Where [10] appears, read: both sexes, human, plasma, Sprinkled on Applesauce, mean ± SD.

Where two headings read alike, the source gives them in different places.

One may read the half-life as the time in which the quantity being followed falls by half. The term AUC(0-t) denotes the area under the concentration-time curve up to a stated or last time point. Higher therefore signals more exposure. The Cmax is the maximum level reached in the sampled fluid or tissue. For `N[C@@H](Cc1ccc(O)c(O)c1)C(=O)O` [LD, levodopa], in data set [1] (Fed, mean ± SD), the T1/2 is listed as 1.79 ± 0.3 h. In addition, the Tmax is 0.5 (0.5-5.0) h in data set [1] (Sprinkled on Applesauce), 2 h in data set [1] (setting [4]) and 4 h in data set [1] (setting [5]). Besides, the values for the half-life in data set [1] (setting [3]) and in data set [1] (setting [7]) were 2 ± 0.3 h and 2.02 ± 0.31 h, respectively. In addition, the results for the exposure AUC(0-t) in data set [1] (setting [3]), in data set [1] (setting [6]) and in data set [1] (setting [7]) were 9120 ± 2150 ng·h/mL, 10600 ± 1430 ng·h/mL and 8330 ± 1960 ng·h/mL, respectively. In addition, the figures for the Cmax in data set [1] (setting [8]), in data set [1] (setting [9]) and in data set [1] (setting [10]) were 1830 ± 385 ng/mL, 2190 ± 473 ng/mL and 1630 ± 409 ng/mL, respectively. In addition, the figures for the plasma half-life entry in data set [2] (orally administered with CD) and in data set [2] (orally administered without CD) were “about 1.5 hours” and “about 50 minutes”, respectively.
On to `C[C@@](Cc1ccc(O)c(O)c1)(NN)C(=O)O` [Carbidopa], for which the half-life in data set [1] (setting [3]) is 3.9 ± 0.56 h; in data set [1] (setting [6]) it was 3.86 ± 0.78 h; in data set [1] (setting [7]), 3.95 ± 0.67 h. In addition, the Tmax in data set [1] (setting [4]) was 3 h; in data set [1] (setting [5]), 4 h; in data set [1] (both sexes, human, plasma, oral, Sprinkled on Applesauce, read-out: Tmax), 2.5 h. Further, the area under the curve AUC(0-t) in data set [1] (setting [3]) was found to be 2180 ± 906 ng·h/mL; in data set [1] (setting [6]), 751 ± 205 ng·h/mL; in data set [1] (setting [7]), 1910 ± 618 ng·h/mL. The Cmax in data set [1] (setting [8]) is 404 ± 157 ng/mL; in data set [1] (setting [9]), 141 ± 41.1 ng/mL; in data set [1] (setting [10]), 339 ± 91.8 ng/mL.
